Values quoted from earlier work as cited in US20030031589A1, “Control of gaseous sterilisation” (priority 2002, published 2003).
Like-named read-outs stand apart in the source and are kept apart here.

Experiments:
[1] = system: spores
[2] = high relative humidity
[3] = system: bacillus subtilis; conditions: aqueous solutions; 'D' values depend on concentration and temperature

## CC(=O)OO [Peracetic vapour, peracetic acid]
[1]; RH of 20%
  effectiveness of vapour: ineffective
[1]; RH of 80%
  effectiveness of vapour: effective

## C=O [formalin vapour, formaldehyde]
[2]
  effectiveness of vapour vs relative humidity: more effective at high relative humidity

## OO [hydrogen peroxide]
[3]
  sporicidal activity: sporicidal
